Data from BindingDB's records for doi:10.7270/Q2N8786X (Vanderbilt Screening Center For Gpcrs, Ion Channels and …, 2009).

Target: T1, Muscarinic acetylcholine receptor M5 (Homo sapiens, UniProt P08912)
T1 sequence (P08912 whole entry): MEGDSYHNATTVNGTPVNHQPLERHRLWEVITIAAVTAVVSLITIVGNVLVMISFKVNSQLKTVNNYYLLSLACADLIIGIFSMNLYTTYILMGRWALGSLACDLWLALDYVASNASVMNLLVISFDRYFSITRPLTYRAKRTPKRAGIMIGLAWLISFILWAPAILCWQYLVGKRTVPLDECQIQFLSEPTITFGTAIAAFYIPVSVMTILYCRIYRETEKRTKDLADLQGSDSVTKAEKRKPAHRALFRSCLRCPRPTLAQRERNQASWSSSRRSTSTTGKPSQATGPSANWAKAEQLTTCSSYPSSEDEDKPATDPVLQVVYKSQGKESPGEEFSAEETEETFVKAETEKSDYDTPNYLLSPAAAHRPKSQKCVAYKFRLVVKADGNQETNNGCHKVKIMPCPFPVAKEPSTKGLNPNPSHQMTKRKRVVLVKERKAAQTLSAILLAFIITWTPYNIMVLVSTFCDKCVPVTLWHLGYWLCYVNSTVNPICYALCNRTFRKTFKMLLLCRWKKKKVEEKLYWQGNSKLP
Assay: binding competition at muscarinic M5 – biochemical, [3H]N-methylscopolamine (AID 2192)
Conditions: inactive by the depositor's call

COc1ccc(CN2C(=O)C(=O)c3cc(OC(F)(F)F)ccc32)cc1 [VU0238429] was tested, and the Ki was 1160 nM.
